Measurements taken from US8506945B2, “Polymers with structure-defined functions” (Smith & Nephew, PLC., priority 2001, dated 2013).

Key:
[1] = tested on: ovine meniscal chondrocytes P3; experiment: Cytotoxicity on chondrocyte culture, PicoGreen DNA assay; format: cell-based; settings: 48 h incubation, DNA by PicoGreen assay
From the text: The high chemical reactivity of protease inhibitors represents toxicological problems both in vitro and potentially in vivo. […] DNA concentrations were obtained using a PicoGreen assay.

Elastase = Elastase (1.2 μg/ml), 20° C., 0.2M TRIS buffer
Thrombin = Thrombin (Homo sapiens, UniProt P00734); experiment: biochemical

NCCc1ccc(S(=O)(=O)F)cc1 [AEBSF, 4-(2-aminoethyl)benzenesulphonylfluoride]
concentration at which significant toxicity deviation from the vehicle alone begins [1]: 8000 ng/mL | IC50 (Elastase): 312 µM | IC50 (Thrombin): 712 µM
